# Data reported in patent publication US10689377B2 (Mirati Therapeutics, Inc., priority 2017, dated 2020).
# Target: KRas G12C (Homo sapiens, UniProt P01116, G12C)
# Experiment: Cellular inhibition of KRas G12C measured by Phospho-ERK in NCI-H358 cells
# Format: cell-based
# Settings: pERK(Thr202/Tyr204) normalized with GAPDH, NCI-H358 cells, 3 hours; read-out: IC50
# In short: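 Following 8-12 h attachment, NCI-H358 cells got serially diluted compound (0.5% DMSO) for 3 hours. Cells were then fixed, permeabilized with cold methanol, and stained for pERK(Thr202/Tyr204) and GAPDH. Ratios were converted to percent of DMSO control, with IC50 obtained by four-parameter regression.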
# KRas G12C, sequence (P01116 1-188 isoform P01116-2 G12C): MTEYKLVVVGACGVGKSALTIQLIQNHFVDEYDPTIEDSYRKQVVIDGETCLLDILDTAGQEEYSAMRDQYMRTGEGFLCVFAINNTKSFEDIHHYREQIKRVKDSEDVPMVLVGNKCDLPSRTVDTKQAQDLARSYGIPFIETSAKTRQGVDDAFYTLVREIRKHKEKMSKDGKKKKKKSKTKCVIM
row,SMILES,IC50 [nM]
1,"Cc1cccc(N2CCc3c(nc(OC[C@@H]4C[C@@H](F)CN4C)nc3N3CCN(C(=O)/C=C/CN(C)C)[C@@H](CC#N)C3)C2)c1C [Example 438, 2-((S)-1-((E)-4-(dimethylamino)but-2-enoyl)-4-(7-(2,3-dimethylphenyl)-2-(((2S,4R)-4-fluoro-1-methylpyrrolidin-2-yl)methoxy)-5,6,7,8-tetrahydropyrido[3,4-d]pyrimidin-4-yl)piperazin-2-yl)acetonitrile]",0.1 to 1000
2,"C=CC(=O)N1CCN(c2nc(OC[C@@H]3CCCN3C)nc3c2CCN(c2cccc4ccccc24)C3)C(CC#N)C1 (stereo partly drawn) [Example 439, 2-(4-acryloyl-1-(2-(((S)-1-methylpyrrolidin-2-yl)methoxy)-7-(naphthalen-1-yl)-5,6,7,8-tetrahydropyrido[3,4-d]pyrimidin-4-yl)piperazin-2-yl)acetonitrile]",> 1000
3,"C=CC(=O)N1CCN(c2nc(OC[C@@H]3[C@H](F)CCN3C)nc3c2CCN(c2cccc4ccccc24)C3)C[C@@H]1CC#N [Example 440, 2-((S)-1-acryloyl-4-(2-(((2R,3R)-3-fluoro-1-methylpyrrolidin-2-yl)methoxy)-7-(naphthalen-1-yl)-5,6,7,8-tetrahydropyrido[3,4-d]pyrimidin-4-yl)piperazin-2-yl)acetonitrile]",0.1 to 1000
4,"C=CC(=O)N1CCN(c2nc(OC[C@H]3CCCN3C)nc3c2CCN(c2cccc4ccccc24)C3)C[C@@H]1CC#N [Example 441, 2-((S)-1-acryloyl-4-(2-(((R)-1-methylpyrrolidin-2-yl)methoxy)-7-(naphthalen-1-yl)-5,6,7,8-tetrahydropyrido[3,4-d]pyrimidin-4-yl)piperazin-2-yl)acetonitrile]",0.1 to 1000
5,"C=CC(=O)N1CCN(c2nc(OC[C@@H]3CCCN3C)nc3c2CCN(c2cccc4cccn24)C3)C[C@@H]1CC#N [Example 442, 2-((S)-1-acryloyl-4-(7-(indolizin-5-yl)-2-(((S)-1-methylpyrrolidin-2-yl)methoxy)-5,6,7,8-tetrahydropyrido[3,4-d]pyrimidin-4-yl)piperazin-2-yl)acetonitrile]",0.1 to 1000
6,"C=CC(=O)N1CCN(c2nc(OC[C@H]3CN(C)CCO3)nc3c2CCN(c2cccc4ccccc24)C3)CC1CC#N (stereo partly drawn) [Example 443, 2-(1-Acryloyl-4-(2-(((R)-4-methylmorpholin-2-yl)methoxy)-7-(naphthalen-1-yl)-5,6,7,8-tetrahydropyrido[3,4-d]pyrimidin-4-yl)piperazin-2-yl)acetonitrile]",0.1 to 1000
7,"C=CC(=O)N1CCN(c2nc(OC[C@@H]3CN(C)CCO3)nc3c2CCN(c2cccc4ccccc24)C3)CC1CC#N (stereo partly drawn) [Example 444, 2-(1-acryloyl-4-(2-(((S)-4-methylmorpholin-2-yl)methoxy)-7-(naphthalen-1-yl)-5,6,7,8-tetrahydropyrido[3,4-d]pyrimidin-4-yl)piperazin-2-yl)acetonitrile]",0.1 to 1000
8,"C=CC(=O)N1CCN(c2nc(OC[C@@H]3COCCN3C)nc3c2CCN(c2cccc4ccccc24)C3)CC1CC#N (stereo partly drawn) [Example 445, 2-(1-Acryloyl-4-(2-(((S)-4-methylmorpholin-3-yl)methoxy)-7-(naphthalen-1-yl)-5,6,7,8-tetrahydropyrido[3,4-d]pyrimidin-4-yl)piperazin-2-yl)acetonitrile]",0.1 to 1000
9,"C=CC(=O)N1CCN(c2nc(OC[C@H]3COCCN3C)nc3c2CCN(c2cccc4ccccc24)C3)CC1CC#N (stereo partly drawn) [Example 446, 2-(1-Acryloyl-4-(2-(((R)-4-methylmorpholin-3-yl)methoxy)-7-(naphthalen-1-yl)-5,6,7,8-tetrahydropyrido[3,4-d]pyrimidin-4-yl)piperazin-2-yl)acetonitrile]",> 1000
10,"C=CC(=O)N1CCN(c2nc(OC[C@@H]3CC(F)(F)CN3C)nc3c2CCN(c2cccc4ccccc24)C3)C[C@@H]1CC#N [Example 447, 2-((S)-1-Acryloyl-4-(2-(((S)-4,4-difluoro-1-methylpyrrolidin-2-yl)methoxy)-7-(naphthalen-1-yl)-5,6,7,8-tetrahydropyrido[3,4-d]pyrimidin-4-yl)piperazin-2-yl)acetonitrile]",0.1 to 1000
11,"C=CC(=O)N1CCN(c2nc(OC[C@H]3CN(C)C4(CC4)CO3)nc3c2CCN(c2cccc4ccccc24)C3)C[C@@H]1CC#N [Example 448, 2-((S)-1-Acryloyl-4-(2-(((R)-4-methyl-7-oxa-4-azaspiro[2.5]octan-6-yl)methoxy)-7-(naphthalen-1-yl)-5,6,7,8-tetrahydropyrido[3,4-d]pyrimidin-4-yl)piperazin-2-yl)acetonitrile]",0.1 to 1000
12,C=CC(=O)N1CCN(c2nc(OC[C@@H]3CCCN3C)nc3c2CCN(c2ccccc2C(F)F)C3)CC1CC#N (stereo partly shown) [Example 449],0.1 to 1000
13,"C=CC(=O)N1CCN(c2nc(OC[C@H]3CN(C)CCO3)nc3c2CCN(c2cccc4ccccc24)C3)C[C@@H]1CC#N [Example 450, 2-((S)-1-Acryloyl-4-(2-(((R)-4-methylmorpholin-2-yl)methoxy)-7-(naphthalen-1-yl)-5,6,7,8-tetrahydropyrido[3,4-d]pyrimidin-4-yl)piperazin-2-yl)acetonitrile]",0.1 to 1000
14,"C=CC(=O)N1CCN(c2nc(OC[C@H]3CN(C)[C@H](C)CO3)nc3c2CCN(c2cccc4ccccc24)C3)C[C@@H]1CC#N [Example 451, 2-((S)-1-Acryloyl-4-(2-(((2R,5R)-4,5-dimethylmorpholin-2-yl)methoxy)-7-(naphthalen-1-yl)-5,6,7,8-tetrahydropyrido[3,4-d]pyrimidin-4-yl)piperazin-2-yl)acetonitrile]",0.1 to 1000
15,"C=CC(=O)N1CCN(c2nc(OC[C@H]3CN(C)C(C)(C)CO3)nc3c2CCN(c2cccc4ccccc24)C3)C[C@@H]1CC#N [Example 452, 2-((S)-1-Acryloyl-4-(7-(naphthalen-1-yl)-2-(((R)-4,5,5-trimethylmorpholin-2-yl)methoxy)-5,6,7,8-tetrahydropyrido[3,4-d]pyrimidin-4-yl)piperazin-2-yl)acetonitrile]",0.1 to 1000
16,"C=CC(=O)N1CCN(c2nc(OC[C@@H]3CCCN3C)nc3c2CCN(c2c(C)c(C)cc4[nH]ncc24)C3)CC1 [Example 453, 1-[4-[7-(5,6-dimethyl-1H-indazol-4-yl)-2-[[(2S)-1-methylpyrrolidin-2-yl]methoxy]-6,8-dihydro-5H-pyrido[3,4-d]pyrimidin-4-yl]piperazin-1-yl]prop-2-en-1-one]",0.1 to 1000
17,C=CC(=O)N1CCN(c2nc(OCCN3CCC(F)(F)CC3)nc3c2CCN(c2cccc4cccc(Cl)c24)C3)C[C@@H]1CC#N [Example 454],0.1 to 1000
18,"C=CC(=O)N1CCN(c2nc(OCCN3CCCC(F)(F)C3)nc3c2CCN(c2cccc4cccc(Cl)c24)C3)C[C@@H]1CC#N [Example 455, 2-[(2S)-4-[7-(8-chloro-1-naphthyl)-2-[2-(3,3-difluoro-1-piperidyl)ethoxy]-6,8-dihydro-5H-pyrido[3,4-d]pyrimidin-4-yl]-1-prop-2-enoyl-piperazin-2-yl]acetonitrile]",0.1 to 1000
19,"C=CC(=O)N1CCN(c2nc(OC[C@@H]3CCCN3C)nc3c2CCN(c2c(C)c(C)cc4[nH]ccc24)C3)CC1 [Example 457, 1-[4-[7-(5,6-dimethyl-1H-indol-4-yl)-2-[[(2S)-1-methylpyrrolidin-2-yl]methoxy]-6,8-dihydro-5H-pyrido[3,4-d]pyrimidin-4-yl]piperazin-1-yl]prop-2-en-1-one]",0.1 to 1000
20,"CC#CC(=O)N1CCN(c2nc(OC[C@@H]3CCCN3C)nc3c2CCN(c2cccc4cccc(C)c24)C3)C[C@@H]1CC#N [Example 458, 2-((S)-1-(but-2-ynoyl)-4-(7-(8-methylnaphthalen-1-yl)-2-(((S)-1-methylpyrrolidin-2-yl)methoxy)-5,6,7,8-tetrahydropyrido[3,4-d]pyrimidin-4-yl)piperazin-2-yl)acetonitrile]",0.1 to 1000
21,"Cc1cccc2cccc(N3CCc4c(nc(OC[C@@H]5CCCN5C)nc4N4CCN(C(=O)/C=C/CN(C)C)[C@@H](CC#N)C4)C3)c12 [Example 459, 2-((S)-1-((E)-4-(dimethylamino)but-2-enoyl)-4-(7-(8-methylnaphthalen-1-yl)-2-(((S)-1-methylpyrrolidin-2-yl)methoxy)-5,6,7,8-tetrahydropyrido[3,4-d]pyrimidin-4-yl)piperazin-2-yl)acetonitrile]",0.1 to 1000
22,"Cc1cccc2cccc(N3CCc4c(nc(OC[C@@H]5CCCN5C)nc4N4CCN(C(=O)/C=C/CN5CCOCC5)[C@@H](CC#N)C4)C3)c12 [Example 460, 2-[(2S)-4-[7-(8-methyl-1-naphthyl)-2-[[(2S)-1-methylpyrrolidin-2-yl]methoxy]-6,8-dihydro-5H-pyrido[3,4-d]pyrimidin-4-yl]-1-[(E)-4-morpholinobut-2-enoyl]piperazin-2-yl]acetonitrile]",0.1 to 1000
23,"C=CC(=O)N1CCN(c2nc(OC[C@@H]3CCCN3C)nc3c2CCN(c2cccc4cccc(C)c24)C3)C[C@H]1CC#N [Example 461, 2-[(2R)-4-[7-(8-methyl-1-naphthyl)-2-[[(2S)-1-methylpyrrolidin-2-yl]methoxy]-6,8-dihydro-5H-pyrido[3,4-d]pyrimidin-4-yl]-1-prop-2-enoyl-piperazin-2-yl]acetonitrile]",0.1 to 1000
24,"Cc1cccc2cccc(N3CCc4c(nc(OCCC(=O)N(C)C)nc4N4CCN(C(=O)/C=C/CN(C)C)[C@@H](CC#N)C4)C3)c12 [Example 463, (S,E)-3-((4-(3-(cyanomethyl)-4-(4-(dimethylamino)but-2-enoyl)piperazin-1-yl)-7-(8-methylnaphthalen-1-yl)-5,6,7,8-tetrahydropyrido[3,4-d]pyrimidin-2-yl)oxy)-N,N-dimethylpropanamide]",0.1 to 1000
25,"C=CC(=O)N1CCN(c2nc(OC[C@@H]3CCCN3C)nc3c2CCN(c2cccc4cccc(Br)c24)C3)C[C@@H]1CC#N [Example 464, 2-((S)-1-acryloyl-4-(7-(8-bromonaphthalen-1-yl)-2-(((S)-1-methylpyrrolidin-2-yl)methoxy)-5,6,7,8-tetrahydropyrido[3,4-d]pyrimidin-4-yl)piperazin-2-yl)acetonitrile]",0.1 to 1000
